Assay [1] concerns the target T1, Nociceptin receptor (Homo sapiens, UniProt P41146). Description: Antagonist activity at human NOP receptor expressed in human HEK293 cells assessed as inhibition of GTPgammaS binding in presence of 300 nM GDP relative to control. In kind it is functional, cell-based.
Assay [2] concerns the target T1, Nociceptin receptor. Description: Displacement of [125I]Tyr14-nociceptin from human NOP receptor expressed in human HEK293 cells after 90 mins by scintillation counting. (Displacement assays read how much labelled ligand stays bound in the presence of the test substance.)
Assay [3] has as its target Delta-type opioid receptor (Homo sapiens) (UniProt P41143). Kind of assay: Displacement of [3H]-naltrindole from human delta opioid receptor expressed in human HEK293 cells after 2 hrs by scintillation counting. In kind it is cell-based.
The species entered for assay [4] is Homo sapiens. Kind of assay: Selectivity ratio of IC50 for human mu opioid receptor to IC50 for human NOP receptor.
The species entered for assay [5] is Homo sapiens. Kind of assay: Selectivity ratio of IC50 for human kappa opioid receptor to IC50 for human NOP receptor.
For assay [6], the target named is Mu-type opioid receptor (Homo sapiens, UniProt P35372). Description: Displacement of [3H]-naltrindole from human mu opioid receptor expressed in CHO cells after 2 hrs by scintillation counting. In kind it is cell-based.
Assay [7] addresses Kappa-type opioid receptor (Homo sapiens, UniProt P41145). Description: Displacement of [3H]-diprenorphine from human kappa opioid receptor expressed in human HEK293 cells after 2 hrs by scintillation counting.

SMILES strings stand for the structures. pIC50: −log10 of the molar value. Active and inactive are the calls of the source. No cut-off for these calls is given here.

Sequence of Mu-type opioid receptor (P35372 whole entry): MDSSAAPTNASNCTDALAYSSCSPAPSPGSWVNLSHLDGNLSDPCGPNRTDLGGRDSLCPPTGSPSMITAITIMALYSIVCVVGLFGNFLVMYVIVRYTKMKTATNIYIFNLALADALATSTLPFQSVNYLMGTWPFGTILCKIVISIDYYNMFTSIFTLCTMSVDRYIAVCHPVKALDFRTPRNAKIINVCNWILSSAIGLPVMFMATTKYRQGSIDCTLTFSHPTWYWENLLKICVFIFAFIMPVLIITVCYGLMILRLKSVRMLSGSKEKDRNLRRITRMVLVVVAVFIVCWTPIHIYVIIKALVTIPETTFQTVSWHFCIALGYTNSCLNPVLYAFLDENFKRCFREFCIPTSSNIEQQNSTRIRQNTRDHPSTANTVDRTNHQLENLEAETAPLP
Sequence of Delta-type opioid receptor (Homo sapiens) (P41143 whole entry): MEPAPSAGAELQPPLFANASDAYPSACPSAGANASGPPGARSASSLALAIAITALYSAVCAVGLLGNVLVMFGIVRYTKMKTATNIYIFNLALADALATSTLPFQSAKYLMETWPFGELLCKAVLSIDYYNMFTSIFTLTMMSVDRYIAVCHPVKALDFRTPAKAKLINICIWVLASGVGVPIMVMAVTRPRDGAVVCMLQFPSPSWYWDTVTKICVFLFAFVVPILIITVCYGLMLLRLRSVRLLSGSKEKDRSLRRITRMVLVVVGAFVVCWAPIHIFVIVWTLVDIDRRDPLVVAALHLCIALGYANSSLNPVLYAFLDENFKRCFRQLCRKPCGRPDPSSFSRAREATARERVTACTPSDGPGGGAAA
Sequence of Kappa-type opioid receptor (P41145 whole entry): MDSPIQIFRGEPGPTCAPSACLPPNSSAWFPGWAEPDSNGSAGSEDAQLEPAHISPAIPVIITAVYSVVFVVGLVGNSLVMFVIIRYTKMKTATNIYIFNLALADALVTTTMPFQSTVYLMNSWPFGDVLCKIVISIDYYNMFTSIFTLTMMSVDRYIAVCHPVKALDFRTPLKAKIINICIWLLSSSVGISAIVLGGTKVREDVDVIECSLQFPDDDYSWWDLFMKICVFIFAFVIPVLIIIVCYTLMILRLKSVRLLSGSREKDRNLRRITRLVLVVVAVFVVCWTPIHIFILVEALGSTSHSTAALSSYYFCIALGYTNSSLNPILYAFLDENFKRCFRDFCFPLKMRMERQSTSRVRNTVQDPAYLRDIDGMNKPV
T1 sequence (P41146 whole entry): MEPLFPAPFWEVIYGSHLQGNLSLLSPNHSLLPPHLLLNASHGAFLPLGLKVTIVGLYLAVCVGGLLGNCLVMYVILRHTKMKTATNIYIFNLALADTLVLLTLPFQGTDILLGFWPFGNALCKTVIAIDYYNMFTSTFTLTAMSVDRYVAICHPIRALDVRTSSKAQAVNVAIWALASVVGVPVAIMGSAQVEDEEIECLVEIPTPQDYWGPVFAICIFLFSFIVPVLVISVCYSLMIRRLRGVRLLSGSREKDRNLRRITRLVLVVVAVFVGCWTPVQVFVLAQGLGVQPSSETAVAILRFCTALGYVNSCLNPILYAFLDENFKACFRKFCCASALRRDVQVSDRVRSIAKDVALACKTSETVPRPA

In the case of `Cc1cc(N)c2cc(NC(=O)c3ccccc3COc3ccc(/C=N/CCCC/N=C/c4ccc(OCc5ccccc5C(=O)Nc5ccc6nc(C)cc(N)c6c5)cc4)cc3)ccc2n1`, in assay [1], the outcome was Active. In assay [2], the negative logarithm of the IC50 (pIC50) – broadly, the IC50 on a negative log10 scale, so that one unit is a factor of ten – is 7.45. In addition, the result in assay [3] was inactive.
With `Cc1cc(N)c2cc(NC(=O)c3ccccc3COc3ccc(CNCCCCCCN)cc3)ccc2n1`, the Ratio IC50 is 7.4 in assay [4] and 1.5 in assay [5]. The result in assay [1] was Active. In addition, the values for the pIC50 in assay [6], in assay [2] and in assay [7] were 5.22, 5.96 and 5.91, respectively. Besides, the result in assay [3] was inactive.
On to `Cc1cc(N)c2cc(NC(=O)c3ccccc3COc3ccc(CNCCCN)cc3)ccc2n1`, for which the Ratio IC50 in assay [4] is 12; in assay [5], 14. In addition, the result in assay [1] was Active. Moreover, the results for the pIC50 in assay [6], in assay [2] and in assay [7] were 5.85, 6.80 and 5.78, respectively. Besides, in assay [3], the outcome was inactive.
In the case of `CCCCCNCc1ccc(OCc2ccccc2C(=O)Nc2ccc3nc(C)cc(N)c3c2)cc1`, the Ratio IC50 in assay [4] stood at 16; in assay [5] it was 13. Further, the result in assay [1] was Active. In addition, the pIC50 in assay [6] was 5.35; in assay [2] it was 6.14; in assay [7] it was 5.44. Further, in assay [3], the outcome was inactive.
Take `Cc1cc(N)c2cc(NC(=O)c3ccccc3COc3ccc(CNCCCCCCCCN)cc3)ccc2n1`: the Ratio IC50 is 3.2 in assay [4] and 8.6 in assay [5]. The outcome in assay [1] was Active. The values for the pIC50 in assay [6], in assay [2] and in assay [7] were 6.49, 6.84 and 6.06, respectively. The result in assay [3] was inactive.
Regarding `Cc1cc(N)c2cc(NC(=O)c3ccccc3COc3ccc(CNCCCCN)cc3)ccc2n1`, the Ratio IC50 in assay [4] turned out to be 9; in assay [5], 7.2. The result in assay [1] was Active. The pIC50 in assay [6] was 5.27; in assay [2], 6.10; in assay [7], 5.37. Besides, the result in assay [3] was inactive.
`CCCC/N=C/c1ccc(OCc2ccccc2C(=O)Nc2ccc3nc(C)cc(N)c3c2)cc1`: in assay [1], the result was Active. In assay [2], this compound showed a pIC50 of 6.51. The result in assay [3] was inactive.
`Cc1cc(N)c2cc(NC(=O)c3ccccc3COc3ccc(CNCCCCCCCCCCN)cc3)ccc2n1`: the results for the Ratio IC50 in assay [4] and in assay [5] were 13 and 86, respectively. The outcome in assay [1] was Active. Also, the pIC50 in assay [6] was 5.85; in assay [2] it was 6.82; in assay [7] it was 5.04. In addition, the outcome in assay [3] was inactive.
As for `Cc1cc(N)c2cc(NC(=O)c3ccccc3COc3ccc(/C=N/CCC/N=C/c4ccc(OCc5ccccc5C(=O)Nc5ccc6nc(C)cc(N)c6c5)cc4)cc3)ccc2n1`, in assay [1], the result was Active. Moreover, the pIC50 in assay [2] was 7.32. The result in assay [3] was inactive.
On to `CCCCCCNCc1ccc(OCc2ccccc2C(=O)Nc2ccc3nc(C)cc(N)c3c2)cc1`, for which the Ratio IC50 in assay [4] is 2.6; in assay [5] it was 1.2. For the same compound, in assay [1], the result was Active. The pIC50 in assay [6] was 5.59; in assay [2] it was 5.91; in assay [7] it was 5.94. Also, the outcome in assay [3] was inactive.
As for `Cc1cc(N)c2cc(NC(=O)c3ccccc3COc3ccc(CNCCCCCCCN)cc3)ccc2n1`, the results for the Ratio IC50 in assay [4] and in assay [5] were 57 and 5.7, respectively. Further, in assay [1], the outcome was Active. Also, the pIC50 was 5.00 in assay [6], 6.61 in assay [2] and 6.00 in assay [7]. The outcome in assay [3] was inactive.
Turning to `CCCCCCCNCc1ccc(OCc2ccccc2C(=O)Nc2ccc3nc(C)cc(N)c3c2)cc1`, the figures for the Ratio IC50 in assay [4] and in assay [5] were 6.6 and 6.2, respectively. In addition, in assay [1], the result was Active. For the same compound, the pIC50 in assay [6] was 5.70; in assay [2] it was 6.18; in assay [7] it was 5.73. For the same compound, the result in assay [3] was inactive.
Turning to `Cc1cc(N)c2cc(NC(=O)c3ccccc3COc3ccc(CNCCCCCCNCc4ccc(OCc5ccccc5C(=O)Nc5ccc6nc(C)cc(N)c6c5)cc4)cc3)ccc2n1`, the Ratio IC50 was 31 in assay [4] and 30 in assay [5]. The result in assay [1] was Active. The values for the pIC50 in assay [6], in assay [2] and in assay [7] were 5.86, 7.14 and 5.87, respectively. Also, the outcome in assay [3] was inactive.
On to `CCCCCCCCNCc1ccc(OCc2ccccc2C(=O)Nc2ccc3nc(C)cc(N)c3c2)cc1`, for which the Ratio IC50 in assay [4] was determined as 13; in assay [5], 15. Also, the result in assay [1] was Active. For the same compound, the pIC50 in assay [6] was 5.36; in assay [2] it was 6.32; in assay [7], 5.30. The outcome in assay [3] was inactive.
For the compound `CCCCCC/N=C/c1ccc(OCc2ccccc2C(=O)Nc2ccc3nc(C)cc(N)c3c2)cc1`, the outcome in assay [1] was Active. In assay [2], this compound gave a pIC50 of 6.68. Further, in assay [3], the result was inactive.
In the case of `CCc1ccc(OCc2ccccc2C(=O)Nc2ccc3nc(C)cc(N)c3c2)cc1`, the values for the Ratio IC50 in assay [4] and in assay [5] were 50 and 250, respectively. The outcome in assay [1] was Active. The results for the pIC50 in assay [6], in assay [2] and in assay [7] were 5.82, 7.52 and 5.12, respectively. For the same compound, the result in assay [3] was inactive.
Consider `Cc1cc(N)c2cc(NC(=O)c3ccccc3COc3ccc(/C=N/CCCCCCC/N=C/c4ccc(OCc5ccccc5C(=O)Nc5ccc6nc(C)cc(N)c6c5)cc4)cc3)ccc2n1`, for which the result in assay [1] was Active. Further, the pIC50 in assay [2] was 7.20. Also, in assay [3], the result was inactive.
For the compound `Cc1cc(N)c2cc(NC(=O)c3ccccc3COc3ccc(CNCCCNCc4ccc(OCc5ccccc5C(=O)Nc5ccc6nc(C)cc(N)c6c5)cc4)cc3)ccc2n1`, the Ratio IC50 in assay [4] was 15; in assay [5], 177. Also, the result in assay [1] was Active. The results for the pIC50 in assay [6], in assay [2] and in assay [7] were 6.33, 7.12 and 5.26, respectively. Besides, in assay [3], the outcome was inactive.
As for `Cc1cc(N)c2cc(NC(=O)c3ccccc3COc3ccc(/C=N/CCCCCCCC/N=C/c4ccc(OCc5ccccc5C(=O)Nc5ccc6nc(C)cc(N)c6c5)cc4)cc3)ccc2n1`, the result in assay [1] was Active. Also, in assay [2], the pIC50 is 6.94. The result in assay [3] was inactive.
The like results for `CCC/N=C/c1ccc(OCc2ccccc2C(=O)Nc2ccc3nc(C)cc(N)c3c2)cc1` were, in that order, “Active”, 7.00 and “inactive”.
Turning to `CCCCCCCCC/N=C/c1ccc(OCc2ccccc2C(=O)Nc2ccc3nc(C)cc(N)c3c2)cc1`, in assay [1], the result was Active. Further, the pIC50 in assay [2] is 6.81. Besides, the outcome in assay [3] was inactive.
For `Cc1cc(N)c2cc(NC(=O)c3ccccc3COc3ccc(/C=N/CCCCCCCCCC/N=C/c4ccc(OCc5ccccc5C(=O)Nc5ccc6nc(C)cc(N)c6c5)cc4)cc3)ccc2n1`, the result in assay [1] was Active. Besides, in assay [2], the pIC50 is 7.09. Moreover, the outcome in assay [3] was inactive.
The like results for `Cc1cc(N)c2cc(NC(=O)c3ccccc3COc3ccc(CN)cc3)ccc2n1` were, in that order, “Active”, 6.94 and “inactive”.
In the case of `Cc1cc(N)c2cc(NC(=O)c3ccccc3COc3ccc(/C=N/CCCCC/N=C/c4ccc(OCc5ccccc5C(=O)Nc5ccc6nc(C)cc(N)c6c5)cc4)cc3)ccc2n1`, the outcome in assay [1] was Active. Besides, the pIC50 in assay [2] was 7.29. Moreover, the result in assay [3] was inactive.
For `CCCCCCCC/N=C/c1ccc(OCc2ccccc2C(=O)Nc2ccc3nc(C)cc(N)c3c2)cc1`, the outcome in assay [1] was Active. This compound also showed a pIC50 in assay [2] of 6.83. Also, the outcome in assay [3] was inactive.
The like results for `CCCCCCC/N=C/c1ccc(OCc2ccccc2C(=O)Nc2ccc3nc(C)cc(N)c3c2)cc1` were, in that order, “Active”, 6.85 and “inactive”.
The corresponding values for `Cc1cc(N)c2cc(NC(=O)c3ccccc3COc3ccc(C=O)cc3)ccc2n1` are “Active”, 6.68 and “inactive”.
The corresponding values for `Cc1cc(N)c2cc(NC(=O)c3ccccc3COc3ccc(/C=N/CCCCCC/N=C/c4ccc(OCc5ccccc5C(=O)Nc5ccc6nc(C)cc(N)c6c5)cc4)cc3)ccc2n1` are “Active”, 7.08 and “inactive”.
In the case of `CCCCC/N=C/c1ccc(OCc2ccccc2C(=O)Nc2ccc3nc(C)cc(N)c3c2)cc1`, the result in assay [1] was Active. In assay [2], this compound showed a pIC50 of 6.73. In addition, the result in assay [3] was inactive.
For `Cc1cc(N)c2cc(NC(=O)c3ccccc3COc3ccc(/C=N/CCCCCCCCC/N=C/c4ccc(OCc5ccccc5C(=O)Nc5ccc6nc(C)cc(N)c6c5)cc4)cc3)ccc2n1`, in assay [1], the result was Active. Besides, the pIC50 in assay [2] is 7.08. Also, the result in assay [3] was inactive.
For `CCCCCCCCCC/N=C/c1ccc(OCc2ccccc2C(=O)Nc2ccc3nc(C)cc(N)c3c2)cc1`, in assay [1], the outcome was Active. Besides, the pIC50 in assay [2] is 6.73. For the same compound, the outcome in assay [3] was inactive.

The values above are taken from ChEMBL document CHEMBL1759965, “Synthesis and pharmacological evaluation of bivalent antagonists of the nociceptin opioid receptor” (Eur J Med Chem, 2011).
